Consider 25 compounds from patent publication US20230011869A1 (Hoffmann-La Roche Inc., priority 2018, published 2023).

Counter-ions that a name gives are not always drawn. Like-named read-outs stand apart in the source and are kept apart here.

The subject of the assay is Acinetobacter baumannii ATCC17978. The assay can be described thus: Antimicrobial susceptibility testing: 90% growth inhibitory concentration (IC90) determination, Iso-Sensitest broth. Type of assay: cell-based. Put shortly:
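A. baumannii ATCC17978 grown in Iso-Sensitest broth across 10 compound concentrations at 35±2 °C.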

The mark [1] stands for this setting: 90% growth inhibitory concentration, Acinetobacter baumannii ATCC17978, Iso-Sensitest broth, OD 600 nm over 16 h, read-out: ATCC17978 IC90.
The mark [2] stands for this setting: Acinetobacter baumannii, ATCC17978, 16 h, read-out: ATCC17978 IC90, 90% growth inhibitory concentration, Acinetobacter baumannii ATCC17978, Iso-Sensitest broth, OD 600 nm over 16 h.

In the case of `COc1ccc(-c2cnc3c(Nc4ccc(C(=O)N5CCC(C(=O)NCC(O)CO)CC5)c(C)c4)nccn23)cc1F` (stereo not shown) [Example 402, N-(2,3-dihydroxypropyl)-1-[4-[[3-(3-fluoro-4-methoxyphenyl)imidazo[1,2-a]pyrazin-8-yl]amino]-2-methylbenzoyl]piperidine-4-carboxamide], under setting [1], the IC90 was 430 nM.

Regarding `Cc1cc(Nc2nccn3c(-c4ccc(OC(F)F)cc4)cnc23)ccc1C(=O)N1CCC(C(=O)N2C[C@H](O)[C@@H](O)C2)CC1` (racemic) [Example 415, [4-[[3-[4-(difluoromthoxy)phenyl]imi-dazo[1,2-a]pyrazin-8-yl]amino]-2-methylphenyl]-[4-[rac-(3R,4R)-3,4-dihydroxypyrrolidine-1-carbonyl]piperidin-1-yl]methanone], the IC90 under setting [2] is 780 nM.

On to `Cc1cc(Nc2nccn3c(-c4ccc(OC(F)F)cc4)cnc23)ccc1C(=O)N1CCN(C(=O)NCC2(O)CNC2)CC1` [Example 493, 4-[4-[[3-[4-(difluoromethoxy)phenyl]imi-dazo[1,2-a]pyrazin-8-yl]amino]-2-methylbenzoyl]-N-[(3-hydroxyazetidin-3-yl)methyl]piperazine-1-carboxamide; formic acid], for which the IC90 under setting [2] amounted to 310 nM.

Regarding `Cc1cc(Nc2nccn3c(-c4ccc(OC(F)F)cc4)cnc23)ccc1C(=O)N1CCN(C(=O)[C@@H](N)CCCNC(N)=O)CC1` [Example 262, [(4S)-4-amino-5-[4-[4-[[3-[4-(difluoromethoxy)phenyl]imi-dazo[1,2-a]pyrazin-8-yl]amino]-2-methylbenzoyl]piperazin-1-yl]-5-oxopentyl]urea], the IC90 under setting [2] worked out at 1000 nM.

Turning to `Cc1cc(Nc2nccn3c(-c4ccc(OC(F)F)cc4)cnc23)ccc1C(=O)N1CCN(C(=O)[C@H]2CCNC[C@H]2O)CC1` [Example 511, [4-[[3-[4-(difluoromethoxy)phenyl]imi-dazo[1,2-a]pyrazin-8-yl]amino]-2-methylphenyl]-[4-[(3S,4S)-3-hydroxypiperidine-4-carbonyl]piperazin-1-yl]methanone], the IC90 under setting [2] is 560 nM.

On to `COc1ccc(-c2cnc3c(Nc4ccc(C(=O)N5CCC(C(=O)N6CCNC7(CC7)C6)CC5)c(C)c4)nccn23)cc1F` [Example 395, [4-(4,7-diazaspiro[2.5]octane-7-carbonyl)piperidin-1-yl]-[4-[[3-(3-fluoro-4-methoxyphenyl)imidazo[1,2-a]pyrazin-8-yl]amino]-2-methylphenyl]methanone; hy-drochloride], for which the IC90 under setting [1] is 340 nM.

As to `COc1ccc(-c2cnc3c(Nc4ccc(C(=O)N5CCN(C(=O)CN(C)C)CC5)c(C)c4)nccn23)cc1F` [Example 64, 2-(dimethylamino)-1-(4-(4-((3-(3-fluoro-4-methoxyphenyl)imidazo[1,2-a]pyrazin-8-yl)amino)-2-methylbenzoyl)piperazin-1-yl)ethanone], the IC90 under setting [1] stood at 270 nM.

In the case of `CCc1cc(Nc2nccn3c(-c4ccc(OC)c(F)c4F)cnc23)ccc1C(=O)N1CCN(C(=O)[C@@H]2C[C@@H](O)CN2)CC1` [Example 185, [4-[[3-(2,3-difluoro-4-methoxy-phenyl)imidazo[1,2-a]pyrazin-8-yl]amino]-2-ethyl-phenyl]-[4-[(2S,4R)-4-hydroxypyrrolidine-2-carbonyl]piperazin-1-yl]methanone hydrochloride], under setting [1], the IC90 is 220 nM.

In the case of `COc1ccc(-c2cnc3c(Nc4ccc(C(=O)N5CCN(C(=O)[C@@H]6C[C@@H](OC(=O)[C@@H](N)CCCCN)CN6)CC5)c(C)c4)nccn23)c(F)c1F` [Example 561, [(3R,5S)-5-[4-[4-[[3-(2,3-difluoro-4-methoxy-phenyl)imidazo[1,2-a]pyrazin-8-yl]amino]-2-methyl-benzoyl]piperazine-1-carbonyl]pyrrolidin-3-yl] (2S)-2,6-diaminohexanoate formate], the IC90 under setting [2] was determined as 123 nM.

For the compound `Cc1cc(Nc2nccn3c(-c4ccc(OC(F)F)cc4)cnc23)ccc1C(=O)N1CCOCC1CN` (stereo not shown) [Example 378, [3-(aminomethyl)morpholin-4-yl]-[4-[[3-[4-(difluoromethoxy)phenyl]imi-dazo[1,2-a]pyrazin-8-yl]amino]-2-methylphenyl]methanone; hy-drochloride], the IC90 under setting [2] is 2500 nM.

Turning to `Cc1cc(Nc2nccn3c(-c4ccc(OCC#N)c(F)c4F)cnc23)ccc1C(=O)N1CCN(C(=O)N2CCNCC2)CC1` [Example 137, 2-[2,3-difluoro-4-[8-[3-methyl-4-[4-(piperazine-1-carbonyl)piperazine-1-carbonyl]anilino]imidazo[1,2-a]pyrazin-3-yl]phenoxy]acetonitrile formate], the IC90 under setting [1] was found to be 130 nM.

Turning to `COc1ccc(-c2cnc3c(Nc4ccc(C(=O)N5CCC(CNCCC#N)CC5)c(C)c4)nccn23)cc1` [Example 399, 3-[[1-[4-[[3-(4-methoxyphenyl)imidazo[1,2-a]pyrazin-8-yl]amino]-2-methylbenzoyl]piperidin-4-yl]methylamino]propanenitrile], the IC90 under setting [1] is 380 nM.

Consider `Cc1cc(Nc2nccn3c(-c4ccc(OC(F)F)cc4)cnc23)ccc1C(=O)N1CCC(N)CC1` [Example 361, (4-aminopiperidin-1-yl)-[4-[[3-[4-(difluoromethoxy)phenyl]imi-dazo[1,2-a]pyrazin-8-yl]amino]-2-methylphenyl]methanone; hy-drochloride], for which the IC90 under setting [2] came to 450 nM.

`Cc1cc(Nc2nccn3c(-c4ccc(OC(F)F)cc4)cnc23)ccc1C(=O)N1CCN(C(=O)[C@H](N)C2CC2)CC1` [Example 260, (2R)-2-amino-2-cyclopropyl-1-[4-[4-[[3-[4-(difluoromethoxy)phenyl]imi-dazo[1,2-a]pyrazin-8-yl]amino]-2-methylbenzoyl]piperazin-1-yl]ethanone; hydrochloride]: the IC90 under setting [2] was 1000 nM.

Regarding `COc1ccc(-c2cnc3c(Nc4ccc(C(=O)N5CCC(C(=O)N6CCNCC6)CC5)c(C)c4)nccn23)cc1F` [Example 14, (1-(4-((3-(3-fluoro-4-methoxyphenyl)imidazo[1,2-a]pyrazin-8-yl)amino)-2-methylbenzoyl)piperidin-4-yl)(piperazin-1-yl)methanone hydrochloride], under setting [1], the IC90 was 140 nM.

On to `COc1ccc(-c2cnc3c(Nc4ccc(C(=O)N5CCCCC5CN(C)C)c(C)c4)nccn23)cc1F` (stereo not shown) [Example 253, [2-[(dimethylamino)methyl]pi-peridin-1-yl]-[4-[[3-(3-fluoro-4-methoxyphenyl)imidazo[1,2-a]pyrazin-8-yl]amino]-2-methylphenyl]methanone; for-mic acid], for which, under setting [1], the IC90 worked out at 6700 nM.

For the compound `Cc1cc(Nc2nccn3c(-c4ccc(OC(F)F)cc4)cnc23)ccc1C(=O)N1CCCC(N)C1` (stereo not shown) [Example 368, (3-aminopiperidin-1-yl)-[4-[[3-[4-(difluoromethoxy)phenyl]imi-dazo[1,2-a]pyrazin-8-yl]amino]-2-methylphenyl]methanone; hy-drochloride], the IC90 under setting [2] amounted to 810 nM.

As for `CCc1cc(Nc2nccn3c(-c4ccc(OC)c(F)c4F)cnc23)ccc1C(=O)N1CCN(C(=O)[C@@H]2CCNC[C@@H]2O)CC1` (racemic) [Example 547, [4-[[3-(2,3-difluoro-4-methoxyphenyl)imidazo[1,2-a]pyrazin-8-yl]amino]-2-ethylphenyl]-[4-[rac-(3R,4R)-3-hydroxypiperidine-4-carbonyl]piperazin-1-yl]methanone; hydrochloride], under setting [1], the IC90 was found to be 340 nM.

As to `C#CCOc1ccc(-c2cnc3c(Nc4ccc(C(=O)N5CCC(C(=O)NCCCNC)CC5)c(C)c4)nccn23)c(F)c1F` [Example 305, 1-[4-[[3-(2,3-difluoro-4-prop-2-ynoxyphenyl)imidazo[1,2-a]pyrazin-8-yl]amino]-2-methylbenzoyl]-N-[3-(methylamino)propyl]piperi-dine-4-carboxamide], the IC90 under setting [1] was determined as 100 nM.

As for `COc1ccc(-c2cnc3c(Nc4ccc(C(=O)N5CCN(C(=O)[C@H]6CCNC6)CC5)c(C)c4)nccn23)c(Cl)c1F` [Example 210, [4-[[3-(2-chloro-3-fluoro-4-methoxy-phenyl)imidazo[1,2-a]pyrazin-8-yl]amino]-2-methyl-phenyl]-[4-[(3S)-pyrrolidine-3-carbonyl]piperazin-1-yl]methanone formate], the IC90 under setting [1] stood at 94 nM.

For the compound `COc1ccc(-c2cnc3c(Nc4ccc(C(=O)N5CCC(C(=O)NCC(O)CN)CC5)c(C)c4)nccn23)c(F)c1F` (stereo not shown) [Example 291, N-(3-amino-2-hydroxypropyl)-1-[4-[[3-(2,3-difluoro-4-methoxyphenyl)imidazo[1,2-a]pyrazin-8-yl]amino]-2-methylbenzoyl]piperidine-4-carboxamide; hydrochloride], the IC90 under setting [2] is 110 nM.

With `Cc1cc(Nc2nccn3c(-c4ccc(OC(F)F)cc4)cnc23)ccc1C(=O)N1CCN(C(=O)N[C@@H]2CCNC2)CC1` [Example 142, 4-[4-[[3-[4-(difluoromethoxy)phenyl]imidazo[1,2-a]pyrazin-8-yl]amino]-2-methyl-benzoyl]-N-[(3R)-pyrrolidin-3-yl]piperazine-1-carboxamide hydrochloride], under setting [1], the IC90 came to 150 nM.

Turning to `COc1ccc(-c2cnc3c(Nc4ccc(C(=O)N5CCN(C(=O)C6CCCN6)CC5)c(C)c4)nccn23)cc1F` (stereo not shown) [Example 174, [4-[[3-(3-fluoro-4-methoxy-phenyl)imidazo[1,2-a]pyrazin-8-yl]amino]-2-methyl-phenyl]-[4-(pyrrolidine-2-carbonyl)piperazin-1-yl]methanone], the IC90 under setting [1] is 300 nM.

For `Cc1cc(Nc2nccn3c(-c4ccc(OC(F)F)c(F)c4)cnc23)ccc1C(=O)N1CCC(N)CC1` [Example 362, (4-aminopiperidin-1-yl)-[4-[[3-[4-(difluoromethoxy)-3-fluorophenyl]imidazo[1,2-a]pyrazin-8-yl]amino]-2-methylphenyl]methanone; hy-drochloride], under setting [1], the IC90 was determined as 490 nM.

Turning to `COc1ccc(-c2cnc3c(Nc4ccc(C(=O)N5CCN(C(=O)[C@H]6CCNC[C@H]6O)CC5)c(C)c4)nccn23)c(F)c1F` (racemic) [Example 195, [4-[[3-(2,3-difluoro-4-methoxy-phenyl)imidazo[1,2-a]pyrazin-8-yl]amino]-2-methyl-phenyl]-[4-[rac-(3S,4S)-3-hydroxypiperidine-4-carbonyl]piperazin-1-yl]methanone], the IC90 under setting [1] came to 290 nM.
